Data on one molecule can be found in PMC5628141 (Molecular cancer therapeutics, 2017).

The assay has as its target T1, androgen receptor DNA binding domain (AR-DBD) (Rattus norvegicus, UniProt P15207, C552A).
T1 sequence (P15207 550-637 C552A): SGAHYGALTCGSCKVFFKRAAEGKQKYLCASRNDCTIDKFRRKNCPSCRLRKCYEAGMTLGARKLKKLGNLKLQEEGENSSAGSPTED
The assay can be described thus: isothermal titration calorimetry. On the technique in general: Isothermal titration calorimetry measures the heat released or taken up as one component is titrated into another.

`Brc1cn(-c2csc(N3CCOCC3)n2)c(Br)n1` [VPC-14449, 4-(4-(2,4-bromo-1H-imidazol-1-yl)thiazol-2-yl)morpholine] gave a Kd of around 64 µM.

Broadly, the Kd is the concentration at which binding is half-saturated. A high value points to weaker binding.
